Laboratory results: ChEMBL document CHEMBL2413072, “Synthesis and in vitro anticancer studies of novel C-2 arylidene congeners of lantadenes” (2013)

How the values were obtained:
Format in all cases: functional
CAKI-1 = assay: Growth inhibition of human CAKI-1 cells assessed as cell growth at 10^-8 M by sulforhodamine B assay; settings: read-out: Activity
NCI-H226 = assay: Growth inhibition of human NCI-H226 cells assessed as cell growth at 10^-6 M by sulforhodamine B assay; settings: read-out: Activity
SR = assay: Growth inhibition of human SR cells assessed as cell growth at 10^-7 M by sulforhodamine B assay; settings: read-out: Activity
SK-MEL-28 = assay: Growth inhibition of human SK-MEL-28 cells by sulforhodamine B assay
SK-MEL-2 [1] = assay: Growth inhibition of human SK-MEL-2 cells assessed as cell growth at 10^-4 M by sulforhodamine B assay; settings: read-out: Activity
BT-549 = assay: Growth inhibition of human BT549 cells assessed as cell growth at 10^-7 M by sulforhodamine B assay; settings: read-out: Activity
HOP-62 = assay: Growth inhibition of human HOP62 cells assessed as cell growth at 10^-4 M by sulforhodamine B assay; settings: read-out: Activity
SK-OV-3 [2] = assay: Growth inhibition of human SKOV3 cells assessed as cell growth at 10^-4 M by sulforhodamine B assay; settings: read-out: Activity
HT-29 [3] = assay: Growth inhibition of human HT-29 cells by sulforhodamine B assay
MCF7 = assay: Growth inhibition of human MCF7 cells by sulforhodamine B assay
LOX IMVI = assay: Growth inhibition of human LOXIMVI cells assessed as cell growth at 10^-7 M by sulforhodamine B assay; settings: read-out: Activity
TK-10 = assay: Growth inhibition of human TK10 cells by sulforhodamine B assay
DU-145 = assay: Growth inhibition of human DU145 cells by sulforhodamine B assay
MDA-MB-468 [4] = assay: Growth inhibition of human MDA-MB-468 cells assessed as cell growth at 10^-4 M by sulforhodamine B assay; settings: read-out: Activity
OVCAR-3 = assay: Growth inhibition of human OVCAR3 cells assessed as cell growth at 10^-8 M by sulforhodamine B assay; settings: read-out: Activity
OVCAR-4 [5] = assay: Growth inhibition of human OVCAR4 cells by sulforhodamine B assay
HT-29 [6] = assay: Growth inhibition of human HT-29 cells assessed as cell growth at 10^-7 M by sulforhodamine B assay; settings: read-out: Activity
SW-620 = assay: Growth inhibition of human SW620 cells by sulforhodamine B assay
OVCAR-4 [7] = assay: Growth inhibition of human OVCAR4 cells assessed as cell growth at 10^-6 M by sulforhodamine B assay; settings: read-out: Activity
HCT-116 [8] = assay: Growth inhibition of human HCT116 cells assessed as cell growth at 10^-6 M by sulforhodamine B assay; settings: read-out: Activity
HCT-116 [9] = assay: Growth inhibition of human HCT116 cells assessed as cell growth at 10^-4 M by sulforhodamine B assay; settings: read-out: Activity
OVCAR-4 [10] = assay: Growth inhibition of human OVCAR4 cells assessed as cell growth at 10^-7 M by sulforhodamine B assay; settings: read-out: Activity
K562 [11] = assay: Growth inhibition of human K562 cells assessed as cell growth at 10^-4 M by sulforhodamine B assay; settings: read-out: Activity
M14 = assay: Growth inhibition of human M14 cells by sulforhodamine B assay
A498 [12] = assay: Growth inhibition of human A498 cells assessed as cell growth at 10^-7 M by sulforhodamine B assay; settings: read-out: Activity
ACHN [13] = assay: Growth inhibition of human ACHN cells assessed as cell growth at 10^-8 M by sulforhodamine B assay; settings: read-out: Activity
SK-MEL-5 = assay: Growth inhibition of human SK-MEL-5 cells by sulforhodamine B assay
SK-OV-3 [14] = assay: Growth inhibition of human SKOV3 cells assessed as cell growth at 10^-6 M by sulforhodamine B assay; settings: read-out: Activity
CCRF-CEM = assay: Growth inhibition of human CCRF-CEM cells assessed as cell growth at 10^-8 M by sulforhodamine B assay; settings: read-out: Activity
A498 [15] = assay: Growth inhibition of human A498 cells assessed as cell growth at 10^-8 M by sulforhodamine B assay; settings: read-out: Activity
HOP-92 = assay: Growth inhibition of human HOP92 cells assessed as cell growth at 10^-4 M by sulforhodamine B assay; settings: read-out: Activity
MDA-MB-435 = assay: Growth inhibition of human MDA-MB-435 cells assessed as cell growth at 10^-8 M by sulforhodamine B assay; settings: read-out: Activity
SF-268 = assay: Growth inhibition of human SF268 cells assessed as cell growth at 10^-4 M by sulforhodamine B assay; settings: read-out: Activity
MDA-MB-468 [16] = assay: Growth inhibition of human MDA-MB-468 cells assessed as cell growth at 10^-7 M by sulforhodamine B assay; settings: read-out: Activity
K562 [17] = assay: Growth inhibition of human K562 cells by sulforhodamine B assay
COLO 205 = assay: Growth inhibition of human COLO205 cells assessed as cell growth at 10^-6 M by sulforhodamine B assay; settings: read-out: Activity
ACHN [18] = assay: Growth inhibition of human ACHN cells assessed as cell growth at 10^-7 M by sulforhodamine B assay; settings: read-out: Activity
SK-MEL-2 [19] = assay: Growth inhibition of human SK-MEL-2 cells by sulforhodamine B assay
[20] = read-out: LC50 (the source's name)
[21] = read-out: pLC50 (the source's name) (converted)

CC(C)=CC(=O)O[C@@H]1CC(C)(C)C[C@H]2C3=CC[C@@H]4[C@@]5(C)CC[C@H](O)C(C)(C)[C@@H]5CC[C@@]4(C)[C@]3(C)CC[C@@]12C(=O)O [Reduced Lantadene B]
growth at 0.01 µM (CAKI-1): 97%
growth at 1 µM (NCI-H226): 86%
growth at 0.1 µM (SR): 104%
GI50 (SK-MEL-28; read-out: GI50): 4.89 µM
CC50 (SK-MEL-28; [20]): 70.1 µM
TGI (SK-MEL-28; read-out: TGI): 20.4 µM
GI50 (SK-MEL-28; read-out: pGI50 (converted)): 4.9 µM
CC50 (SK-MEL-28; [21]): 70.8 µM
TGI (SK-MEL-28; read-out: pTGI (converted)): 20.4 µM
growth at 100 µM (SK-MEL-2 [1]): -71%
growth at 0.1 µM (BT-549): 98%
growth at 100 µM (HOP-62): -60%
growth at 100 µM (SK-OV-3 [2]): -62%
GI50 (HT-29 [3]; read-out: GI50): 4.24 µM
LC50 (50% cell kill) (HT-29 [3]; read-out: LC50): > 100 µM
TGI (HT-29 [3]; read-out: TGI): 27.1 µM
GI50 (HT-29 [3]; read-out: pGI50 (converted)): 4.27 µM
LC50 (50% cell kill) (HT-29 [3]; read-out: pLC50 (converted)): > 100 µM
TGI (HT-29 [3]; read-out: pTGI (converted)): 26.9 µM
GI50 (MCF7; read-out: GI50): 6.18 µM
CC50 (MCF7; [20]): > 100 µM
TGI (MCF7; read-out: TGI): 30.3 µM
GI50 (MCF7; read-out: pGI50 (converted)): 6.17 µM
CC50 (MCF7; [21]): > 100 µM
TGI (MCF7; read-out: pTGI (converted)): 30.2 µM
growth at 0.1 µM (LOX IMVI): 93%
GI50 (TK-10; read-out: GI50): 10.7 µM
CC50 (TK-10; [20]): 71.6 µM
TGI (TK-10; read-out: TGI): 27.7 µM
GI50 (TK-10; read-out: pGI50 (converted)): 10.7 µM
CC50 (TK-10; [21]): 70.8 µM
TGI (TK-10; read-out: pTGI (converted)): 27.5 µM
GI50 (DU-145; read-out: GI50): 7.7 µM
CC50 (DU-145; [20]): 61.6 µM
TGI (DU-145; read-out: TGI): 23.5 µM
GI50 (DU-145; read-out: pGI50 (converted)): 7.76 µM
CC50 (DU-145; [21]): 61.7 µM
TGI (DU-145; read-out: pTGI (converted)): 23.4 µM
growth at 100 µM (MDA-MB-468 [4]): -77%
growth at 0.01 µM (OVCAR-3): 104%
GI50 (OVCAR-4 [5]; read-out: GI50): 8.59 µM
CC50 (OVCAR-4 [5]; [20]): > 100 µM
TGI (OVCAR-4 [5]; read-out: TGI): 35.6 µM
GI50 (OVCAR-4 [5]; read-out: pGI50 (converted)): 8.51 µM
CC50 (OVCAR-4 [5]; [21]): > 100 µM
TGI (OVCAR-4 [5]; read-out: pTGI (converted)): 35.5 µM
growth at 0.1 µM (HT-29 [6]): 95%
GI50 (SW-620; read-out: GI50): 5.69 µM
CC50 (SW-620; [20]): > 100 µM
TGI (SW-620; read-out: TGI): 52.6 µM
GI50 (SW-620; read-out: pGI50 (converted)): 5.75 µM
CC50 (SW-620; [21]): > 100 µM
TGI (SW-620; read-out: pTGI (converted)): 52.5 µM
growth at 1 µM (OVCAR-4 [7]): 83%
growth at 1 µM (HCT-116 [8]): 72%
growth at 100 µM (HCT-116 [9]): -80%
growth at 0.1 µM (OVCAR-4 [10]): 96%
growth at 100 µM (K562 [11]): -1%
GI50 (M14; read-out: GI50): 7.71 µM
CC50 (M14; [20]): 67.8 µM
TGI (M14; read-out: TGI): 24.8 µM
GI50 (M14; read-out: pGI50 (converted)): 7.76 µM
CC50 (M14; [21]): 67.6 µM
TGI (M14; read-out: pTGI (converted)): 24.5 µM
growth at 0.1 µM (A498 [12]): 85%
growth at 0.01 µM (ACHN [13]): 103%
GI50 (SK-MEL-5; read-out: GI50): 2.86 µM
CC50 (SK-MEL-5; [20]): 66.7 µM
TGI (SK-MEL-5; read-out: TGI): 16.5 µM
GI50 (SK-MEL-5; read-out: pGI50 (converted)): 2.88 µM
CC50 (SK-MEL-5; [21]): 66.1 µM
TGI (SK-MEL-5; read-out: pTGI (converted)): 16.6 µM
growth at 1 µM (SK-OV-3 [14]): 104%
growth at 0.01 µM (CCRF-CEM): 103%
growth at 0.01 µM (A498 [15]): 84%
growth at 100 µM (HOP-92): -81%
growth at 0.01 µM (MDA-MB-435): 100%
growth at 100 µM (SF-268): -51%
growth at 0.1 µM (MDA-MB-468 [16]): 98%
GI50 (K562 [17]; read-out: GI50): 3.38 µM
LC50 (K562 [17]; read-out: LC50): > 100 µM
TGI (K562 [17]; read-out: TGI): 93.1 µM
GI50 (K562 [17]; read-out: pGI50 (converted)): 3.39 µM
LC50 (K562 [17]; read-out: pLC50 (converted)): > 100 µM
TGI (K562 [17]; read-out: pTGI (converted)): 93.3 µM
growth at 1 µM (COLO 205): 102%
growth at 0.1 µM (ACHN [18]): 93%
GI50 (SK-MEL-2 [19]; read-out: GI50): 9.34 µM
CC50 (SK-MEL-2 [19]; [20]): 67 µM
TGI (SK-MEL-2 [19]; read-out: TGI): 25.4 µM
GI50 (SK-MEL-2 [19]; read-out: pGI50 (converted)): 9.33 µM
CC50 (SK-MEL-2 [19]; [21]): 67.6 µM
TGI (SK-MEL-2 [19]; read-out: pTGI (converted)): 25.7 µM
